{"source": "patent US7214539B2", "about": "“Scintillation proximity test” (GE Healthcare Limited, priority 1997, dated 2007)", "key": {"[1]": {"target": "T1, HIV reverse transcriptase (Human immunodeficiency virus type 1 group M subtype B, UniProt P04585)", "T1 construct": "0.05 units of HIV reverse transcriptase (Amersham T3610Y); purchased Amersham T3610Y", "test": "Reverse transcriptase enzyme SPA assay (conventional SPA, streptavidin PVT SPA beads)", "assay_type": "biochemical", "text": "The reverse transcriptase enzyme SPA assay (Amersham NK8972) is a homogeneous assay system which uses a biotinylated DNA/RNA oligonucleotide enzyme substrate which is captured on streptavidin PVT SPA beads for quantification. […]"}, "[2]": {"target": "T1, HIV reverse transcriptase", "test": "Reverse transcriptase inhibition assay with streptavidin-coated polystyrene europium beads and CCD imaging", "assay_type": "biochemical", "procedure": "The reverse transcriptase enzyme SPA assay (Amersham NK8972) is a homogeneous assay system which uses a biotinylated DNA/RNA oligonucleotide enzyme substrate which is captured on streptavidin PVT SPA beads for quantification. In this assay, streptavidin-coated organic chelate beads prepared from polystyrene (PST) containing europium were used and the inhibition of reverse transcriptase by aurintricarboxylic acid determined.\nBiotinylated, ready annealed primer/template was added to the wells of a white microplate. This was followed by [^3H]TTP (Amersham TRK576) in 127 nM mixture of dATP, dCTP, dGTP, and TTP buffered in tris/HCl pH 8.0, 80 mM KCl, 10 mM MgCl2, 10 mM DTT and 0.05% w/v Nonidet P40. Aurintricarboxylic acid at concentrations between 0.05 and 1 μM was added and the reactions were initiated by the addition of 0.05 units of HIV reverse transcriptase (Amersham T3610Y). Plates were incubated at 37° C. for 20 minutes and were terminated with the addition of stop reagent. 0.1 mg of streptavidin coated PST beads was added and the plates were incubated overnight at room temperature. The signal generated was detected using the CCD imaging system."}}, "data": [{"smiles": "O=C(O)C1=CC(=C(c2ccc(O)c(C(=O)O)c2)c2ccc(O)c(C(=O)O)c2)C=CC1=O", "note": "[aurintricarboxylic acid]", "values": [{"measurement": "IC50", "setting": "[1]", "result": 180, "unit": "nM"}, {"measurement": "IC50", "setting": "[2]", "result": 230, "unit": "nM"}, {"measurement": "inhibition of reverse transcriptase activity", "setting": "[2]; 1 μM of inhibitor, PST beads, CCD imaging", "result": 85, "unit": "%"}]}]}
